Measured values published in patent US10357537B2, “Cyclotides as immunosuppressive agents” (priority 2011, dated 2019).

How the values were obtained:
[1] = system: activated human primary PBMC; test: Anti-proliferative CFSE cell division assay on anti-CD3/CD28-activated PBMC; settings: CFSE, flow cytometry; extract 50-100 μg/mL, cyclotides 1.8-14 μM, melittin 0.05-1.6 μM
Description: Human peripheral blood mononuclear cells (PBMC) were isolated from the blood of healthy adult donors obtained from the Blood Transfusion Centre (University Medical Center, Freiburg, Germany). Venous blood was centrifuged on a LymphoPrep™ gradient (density: 1.077 g/cm^3, 20 min, 500×g, 20° C.; Progen, Heidelberg, Germany). Afterwards cells were washed twice with medium and cell viability and concentration was determined using the trypan blue exclusion test. PBMC were cultured in RPMI 1640 medium supplemented with 10% heat-inactivated fetal calf serum (PAA, Coelbe, Germany), 2 mM L-glutamine, 100 U/mL penicillin and […] (all from Invitrogen, Karlsruhe, Germany). The cells were cultured at 37° C. in a humidified incubator with a 5% CO2/95% air atmosphere. All experiments conducted on human material were approved by the Ethics committee of the University of Freiburg.
(§1) After cultivation, the cells were assessed in bioassays as described in the text.
For cell proliferation and cell division tracking analysis PBMC were harvested and washed twice in cold PBS and resuspended in PBS at a concentration of 5×10^6 cells/mL. Cells were incubated for 10 min at 37° C. with carboxyfluorescein diacetate succinimidyl ester (CFSE; 5 μM: Sigma-Aldrich, Taufkirchen, Germany). The staining reaction was stopped by washing twice with complete medium. Afterwards, the cell division progress was analysed using flow cytometric analysis.
The anti-proliferative effect of cyclotide mutants/variants was tested according to Example 5. […] Afterwards the cell proliferation was assessed by analysing cell division using flow cytometric-based histogram analysis.

nematodes = test: Relative nematocidal activity (other assays, Table 2); format: in vivo; settings: some cells print two values separated by a slash
[2] = Relative hemolytic activity (other assays, Table 2); format: cell-based; settings: some values given for the Ala mutant
[3] = Relative insecticidal activity (other assays, Table 2); settings: in vivo
[4] = system: activated human primary PBMC; test: Flow cytometric forward-side-scatter analysis of viability and proliferation; format: cell-based; settings: data not shown
Description: After completion of the chemical analysis, different concentrations of the crude O. affinis cyclotide extract were tested for its anti-proliferative capacity on activated human primary PBMC (FIG. 2).

[5] = system: activated human primary PBMC
Description: as §1
The levels of apoptosis were determined using the annexin V-FITC apoptosis detection kit (eBioscience, Frankfurt, Germany) according to the manufacturer's instructions. After annexin V staining, propidium iodide solution (PI; eBioscience) was added and the cells were incubated in the dark, followed by a flow cytometric analysis to determine the amount of apoptosis and necrosis. CPT (30 μg/mL) and Triton-X 100 (0.5%) was used as positive controls for apoptosis and necrosis, respectively.
Cellular apoptotic and necrotic hallmarks were measured by using inter-nucleosomal DNA fragmentation (subG1^+ cells) assay and phosphatidylserine surface analysis through a single and combinatory annexin V and propidium iodide staining. This double staining process allowed the discrimination between viable (annexin^−/PI^−), apoptotic (annexin^+/PI^− and annexin^+/PI^+) or necrotic (annexin^−/PI^+) cells.

[6] = system: experimental auto-immune encephalomyelitis in C57BL/6 mice; format: in vivo, mouse; settings: 43 days
[7] = system: CNS inflammatory and demyelinating lesions; test: Histopathology of CNS in EAE mice; format: in vivo, mouse; settings: haemotoxylin/eosin, Luxol fast blue, Bielshowsky silver staining
From the text: At the completion of the experiments, mice were anesthetized, their blood collected (for subsequent antibody determination) and brain and spinal cord carefully removed, prior to immersion in a 4% paraformaldehyde, 0.1 M phosphate buffer solution. Segments of brain, cerebellum and spinal cord were embedded in paraffin. Sections were stained with haemotoxylin-eosin, Luxol fast blue and Bielshowsky for evidence of inflammation, demyelination and axonal damage, respectively (McQualter 2001 J Exp Med. October 1; 194(7), 873-82). Semiquantitative histological evaluation for inflammation and demyelination was performed and scored in a blind fashion as follows: 0, no inflammation; 1, cellular infiltrate only in the perivascular areas and meninges; 2, mild cellular infiltrate in parenchyma; 3, moderate cellular infiltrate in parenchyma; and 4, severe cellular infiltrate in parenchyma (Bettadapura J Neurochem 70, 199, 1593-1599 8; Okuda J Neuroimmunol 131, 2002, 115-125).
The influence of kalata B1 vaccination on the formation of CNS inflammatory and demyelinating lesions was examined by histological studies of fixed tissue using haemotoxylin/eosin, Luxol fast blue (LFB) and Bielshowsky silver staining.

anti-MOG antibodies = test: MOG-specific antibody ELISA of sera; format: in vivo, mouse; settings: Day 43, reactivity to MOG35-55
Description: Antibody activity to rMOG and MOG35-55 in mouse sera was measured by ELISA, as previously described Ichikawa Cell Immunol 191, 1999, 97-104). Briefly, serum was collected at the end of the experiments and tested by ELISA with rMOG and MOG35-55 peptide-coated plates (Maxisorp, Nunc).
Whether the suppression of EAE in mice vaccinated with kalata B1 was associated with a decrease in the production of specific antibodies to MOG was examined. Accordingly, sera from kalata B1 and PBS treated mice were collected at the completion of the experiment (Day 43) and tested for their reactivity to MOG35-55.

[8] = system: spleen cell cultures of EAE mice; test: Cytokine bead array of spleen cell supernatants; format: cell-based, mouse
Description: For cytokine assays, 2 ml of cells (5×10^6 cells/ml) from spleens isolated 32-46 days after immunization were added to 24 well plates either alone or with MOG35-55 (10 μg/ml) or with anti-CD3ε and anti-CD 28 (20 μg/ml each). Supernatants were collected at 48 and 72 h. Quantitation of mouse cytokine content incorporating Th1, Th2 cytokines and chemokines (IFNγ, IL-2, IL-3, IL-4, IL-5, IL-6, IL-9, IL-10, IL-12p70, IL-13, GM-CSF, KC, MCP-1, MIG, and TNF) were simultaneously determined using a multiplexed bead assay (Cytometric Bead Array Flex sets [CBA]) according to the manufacturer's recommended protocol (Becton Dickinson). Acquisition of 4500 events was performed using a FACScanto II flow cytometer (Becton Dickinson, San Jose, USA) and Diva software and data analysed and fitted to a 4-parameter logistic equation using the FCAP array software (Soft Flow, Pécs, Hungary). Minimum detection levels of each cytokine were: IFNγ, 5.2 μg/ml; IL-2, 1.5 μg/ml; IL-3, 4.2 μg/ml; IL-4, 0.8 μg/ml; IL-5, 4.8 μg/ml; IL-6, 6.5 μg/ml; IL-9, 10.5 μg/ml; IL-10, 16.4 μg/ml; IL-12p70, 9.2 μg/ml; IL-13, 7.3 μg/ml; GM-CSF, 9.9 μg/ml; KC, 16.2 μg/ml; MCP-1, 29 μg/ml; MIG, 11.4 μg/ml and TNF, 17.1 μg/ml.
Accordingly, conditioned media generated from in vitro stimulated and non-stimulated spleen cell cultures were assessed in cytokine bead array assays. A total of 15 cytokines were analysed simultaneously, including, IL2, IL3, IL4, IL5, IL6, IL9, IL10, IL12p70, IL13, IFNγ, GM-CSF, KC, MCP1, MIG and TNFα.

[9] = system: splenocytes of vaccinated EAE mice; settings: MOG35-55
Description: Spleens were taken from mice sacrificed 32-46 days after MOG35-55 immunization. Cells were gently dispersed through a 70 μm nylon mesh (BD) into a single cell suspension, washed and cultured at 2.5×10^6 cells/ml in complete RPMI (RPMI 1640 containing 10% heat-inactivated fetal calf serum (Sigma), 2 mM L-glutamine, 100 U/ml of penicillin, 100 μg/ml of streptomycin, 50 μm 2-mercaptoethanol and 1 mm sodium pyruvate. Two hundred microliters of cell suspensions were then added to 96 well microtitre plates either alone, with MOG35-55 (20 μg/ml) or anti-CD3ε and anti-CD 28 (20 μg/ml each) and incubated for 66 h at 37° C. with 5% CO2. Ten microliters of [^3H]thymidine (1 μCi/well; Amersham, Australia; diluted 1/10 in media) were added to each well for the last 18 h. Plates were harvested onto glass fibre filters and a drop of Microscint Scintillant (Perkin Elmer) was added to each well. Counts were read using a Top Count NXT Scintillation Counter (Perkin Elmer). Presented values are the mean of three wells.

H. contortus nematodes = settings: Huang et al., 2010; read-out: IC50 nematocidal activity; cited from earlier work
[10] = system: T. colibriformus nematodes; settings: Huang et al., 2010; read-out: IC50 nematocidal activity; cited from earlier work
[11] = system: human T-lymphoblast cells; settings: read-out: IC50 cytotoxicity; Daly et al., 2004; cited from earlier work
[12] = Barry 2003; Henriques 2011; cited from earlier work
[13] = non-stimulated spleen cell supernatants

CC(C)C[C@@H]1NC(=O)CNC(=O)[C@H](CC(N)=O)NC(=O)[C@H](CCCNC(=N)N)NC(=O)[C@H]([C@@H](C)O)NC(=O)[C@@H]2CSSC[C@@H]3NC(=O)[C@H]([C@@H](C)O)NC(=O)CNC(=O)CNC(=O)[C@H](C(C)C)NC(=O)[C@@H]4CSSC[C@H](NC(=O)[C@H]([C@@H](C)O)NC(=O)[C@H](CSSC[C@H](NC(=O)[C@H](C(C)C)NC(=O)[C@@H]5CCCN5C1=O)C(=O)NCC(=O)N[C@@H](CCC(=O)O)C(=O)N[C@@H]([C@@H](C)O)C(=O)N4)NC(=O)CNC(=O)[C@@H]1CCCN1C(=O)[C@H]([C@@H](C)O)NC(=O)[C@H](CC(N)=O)NC3=O)C(=O)N[C@@H](CO)C(=O)N[C@@H](Cc1c[nH]c3ccccc13)C(=O)N1CCC[C@H]1C(=O)N[C@@H](C(C)C)C(=O)N2 [Kalata B1]
cell division / proliferation of activated PBMC (in words) [1]: dose-dependent decrease of the cell division capacity
Relative activity in other assays (fold difference to kB1): nematocidal (nematodes): 1.0 fold difference to kB1
Relative activity in other assays (fold difference to kB1): hemolytic [2]: 0.7 fold difference to kB1
Relative activity in other assays (fold difference to kB1): insecticidal [3]: 1.0 fold difference to kB1
concentrations cytotoxic to the cells [4]: higher than 14 μM
induction of necrosis ([5]; kalata B1 14 μM vs untreated control, Triton-X 100, melittin high concentrations): slightly increased
induction of apoptosis ([5]; kalata B1 1.8-14 μM, CPT 30 μg/mL, melittin up to 1.6 μM): no significant influence on the induction of apoptosis
mean cumulative score ([6]; p<0.01 vs PBS control group): 42.2±13.0
incidence and severity of EAE ([6]; three sc injections in IFA at weekly intervals before EAE induction): reduction in the incidence and severity of EAE
histological lesions of EAE [7]: some improvement in disease severity as judged by decrease in histological lesions of EAE
anti-MOG antibodies in sera (anti-MOG antibodies): anti-MOG antibodies were detected in all sera regardless of the vaccination regimen
cytokine content in stimulated supernatants ([8]; MOG35-55 or CD3/38-stimulated, cyclotide vs control groups, data not shown): no marked changes in cytokine content
level of TNFα [8, 13]: significantly reduced levels
level of chemokine MIG [8, 13]: significantly reduced levels
stimulation indices (SI), splenocyte proliferation to MOG [9]: 2.9±0.4
IC50 (H. contortus nematodes): 2.7 µM
IC50 [10]: 4.5 µM
IC50 [11]: 3.5 µM
concentrations causing hemolysis and membrane disruption [12]: > 50 µM
